Source: ChEMBL document CHEMBL4387701, “H2depda: An acyclic adjuvant potentiates meropenem activity in vitro against metallo-β-lactamase-producing enterobacterales” (Eur J Med Chem, 2019)
pKi: −log10 of the molar value. ≈ marks a conversion by molar mass, not a printed value.

Experiments:
[1] = system: Stenotrophomonas maltophilia; assay: Potency index, ratio of EDTA IC50 to test compound IC50 for Stenotrophomonas maltophilia NDM1 expressed in Escherichia coli BL21 (DE3) expressing measured after 15 minutes at interval of 60s
Escherichia coli [2] = assay: Inhibition of NDM1 in Escherichia coli isolate 8 assessed as potentiation of meropenem-induced antibacterial activity by measuring meropenem MIC after 24 hrs by broth microdilution assay (reference value: 320 ug/ml)
Enterobacter cloacae [3] = assay: Inhibition of NDM1 in Enterobacter cloacae isolate 6 assessed as potentiation of meropenem-induced antibacterial activity by measuring meropenem MIC after 24 hrs by broth microdilution assay (reference value: 320 ug/ml)
[4] = target: T1, Metallo-beta-lactamase NDM-4 (Escherichia coli) (UniProt H6WZS9); assay: Inhibition of NDM4 in Escherichia coli ATCC 25922 assessed as potentiation of meropenem-induced antibacterial activity by measuring zone of inhibition by agar disk diffusion method
T1 sequence (whole entry): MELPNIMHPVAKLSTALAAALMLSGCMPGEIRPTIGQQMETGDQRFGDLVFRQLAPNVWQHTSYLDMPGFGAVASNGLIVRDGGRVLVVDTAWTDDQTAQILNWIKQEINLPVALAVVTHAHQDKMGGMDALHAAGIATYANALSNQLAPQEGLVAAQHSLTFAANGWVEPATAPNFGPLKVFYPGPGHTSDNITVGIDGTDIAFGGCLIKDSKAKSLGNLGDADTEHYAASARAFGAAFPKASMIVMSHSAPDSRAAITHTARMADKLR

Klebsiella pneumoniae [5] = assay: Inhibition of IMP4 in Klebsiella pneumoniae isolate 10 assessed as potentiation of meropenem-induced antibacterial activity by measuring meropenem MIC after 24 hrs by broth microdilution method (reference value: 64 ug/ml)
Escherichia coli [6] = assay: Inhibition of IMP4 in Escherichia coli isolate 11 assessed as potentiation of meropenem-induced antibacterial activity by measuring meropenem MIC after 24 hrs by broth microdilution method (reference value: 32 ug/ml)
Klebsiella pneumoniae [7] = assay: Inhibition of IMP4 in Klebsiella pneumoniae isolate 12 assessed as potentiation of meropenem-induced antibacterial activity by measuring meropenem MIC after 24 hrs by broth microdilution method (reference value: 16 ug/ml)
Escherichia coli [8] = assay: Inhibition of IMP4 in Escherichia coli isolate 14 assessed as potentiation of meropenem-induced antibacterial activity by measuring meropenem MIC after 24 hrs by broth microdilution method (reference value: 16 ug/ml)
Escherichia coli [9] = assay: Inhibition of IMP4 in Escherichia coli isolate 18 assessed as potentiation of meropenem-induced antibacterial activity by measuring meropenem MIC after 24 hrs by broth microdilution method (reference value: 16 ug/ml)
Enterobacter cloacae [10] = assay: Inhibition of IMP4 in Enterobacter cloacae clinical isolate 15 assessed as potentiation of meropenem-induced antibacterial activity by measuring reduction in meropenem MIC after 24 hrs by broth microdilution method (reference value: 32 ug/ml)
[11] = Hemolytic activity in sheep RBC at 1000 ug/ml measured after 1 hr relative to control; assay type: ADME, cell-based, Ovis aries, Erythrocyte; conditions: sheep red blood cells (erythrocytes), read-out: Activity
HeLa [12] = assay: Cytotoxicity against human HeLa cells assessed as inhibition of growth after 24 hrs by CCK8 assay; assay type: cell-based
HeLa [13] = assay: Cytotoxicity against human HeLa cells at 64 ug/mL after 24 hrs by calcein AM/propidium iodide staining based fluorescence microscopic method; assay type: cell-based
[14] = Non-competitive inhibition of bacterial NDM1 (G28 to R270 residues) expressed in Escherichia coli BL21 (DE3) using varying levels of MEPM as substrate preincubated for 15 mins followed by substrate addition measured at 60 secs interval up to 60 mins by Lineweaver-Burk plot analysis; set-up: species or system Bacteria
[15] = target: T1, Metallo-beta-lactamase NDM-4 (Escherichia coli); assay: Inhibition of Escherichia coli isolate 3 NDM4 assessed as potentiation of meropenem-induced antibacterial activity by measuring reduction in meropenem MIC after 24 hrs by broth microdilution method relative to meropenem alone
Escherichia coli [16] = assay: Effect on growth of Escherichia coli isolate 2 after 24 hrs by broth microdilution assay; assay type: organism-based
Enterobacter cloacae [17] = assay: Effect on growth of Enterobacter cloacae isolate 4 after 24 hrs by broth microdilution assay; assay type: organism-based
Escherichia coli [18] = assay: Effect on growth of Escherichia coli isolate 9 after 24 hrs by broth microdilution assay; assay type: organism-based
Klebsiella pneumoniae [19] = assay: Effect on growth of Klebsiella pneumoniae isolate 13 after 24 hrs by broth microdilution method; assay type: organism-based
Enterobacter cloacae [20] = assay: Effect on growth of Enterobacter cloacae isolate 16 after 24 hrs by broth microdilution method; assay type: organism-based
Escherichia coli [21] = assay: Effect on growth of Escherichia coli isolate 18 after 24 hrs by broth microdilution method; assay type: organism-based
[22] = target: T1, Metallo-beta-lactamase NDM-4 (Escherichia coli); assay: Inhibition of NDM4 in Escherichia coli isolate 3 assessed as potentiation of meropenem-induced bactericidal activity by measuring log reduction in bacterial colonies at 64 ug/ml incubated for 24 hrs followed by replating on agar plates for 16 to 18 hrs and measured up to 24 hrs by time kill assay
HeLa [23] = assay: Cytotoxicity against human HeLa cells at 128 ug/mL after 24 hrs by calcein AM/propidium iodide staining based fluorescence microscopic method; assay type: cell-based
[24] = Competitive inhibition of bacterial NDM1 (G28 to R270 residues) expressed in Escherichia coli BL21 (DE3) using varying levels of MEPM as substrate preincubated for 15 mins followed by substrate addition measured at 60 secs interval up to 60 mins by Lineweaver-Burk plot analysis; set-up: species or system Bacteria
[25] = target: T1, Metallo-beta-lactamase NDM-4 (Escherichia coli); assay: Inhibition of NDM4 in Escherichia coli isolate 3 assessed as potentiation of meropenem-induced bactericidal activity by measuring bacterial killing at 64 ug/ml incubated for 24 hrs followed by replating on agar plates for 16 to 18 hrs and measured up to 24 hrs by time kill assay relative to control

| Compound | MIC (Escherichia coli [2]) | MIC (Enterobacter cloacae [3]) | inhibition zone (IZ) [4] | MIC (Klebsiella pneumoniae [5]) | MIC (Escherichia coli [6]) | MIC (Klebsiella pneumoniae [7]) | MIC (Escherichia coli [8]) | MIC (Escherichia coli [9]) | fold change (FC) (Enterobacter cloacae [10]) | hemolysis at 1 h, 1000 ug/ml [11] | IC50 (HeLa [12]) | fold change (FC) [15] | MIC (Escherichia coli [16]) | MIC (Enterobacter cloacae [17]) | MIC (Escherichia coli [18]) | MIC (Klebsiella pneumoniae [19]) | MIC (Enterobacter cloacae [20]) | MIC (Escherichia coli [21]) | also measured |
| --- | --- | --- | --- | --- | --- | --- | --- | --- | --- | --- | --- | --- | --- | --- | --- | --- | --- | --- | --- |
| COc1ccc(CN(CCN(Cc2ccc(OC)cc2)Cc2cccc(C(=O)O)n2)Cc2cccc(C(=O)O)n2)cc1 | 0.0625 µg/mL | 2 µg/mL | 21.4 mm | 1 µg/mL | 4 µg/mL | 1 µg/mL | 4 µg/mL | 2 µg/mL | 64 | 2.94% | > 1000 µg/mL | 41000 | 64 µg/mL (≈ 112 µM) | 64 µg/mL (≈ 112 µM) | 32 µg/mL (≈ 56.1 µM) | 32 µg/mL (≈ 56.1 µM) | 32 µg/mL (≈ 56.1 µM) | 32 µg/mL (≈ 56.1 µM) | Ratio IC50 [1]: 200; Activity (HeLa [13]): Non-Toxic; pKi [14]: 6.84 |
| O=C(O)c1cccc(CNCCNCc2cccc(C(=O)O)n2)n1 | 0.0625 µg/mL | 2 µg/mL | 20.2 mm | 0.5 µg/mL | 4 µg/mL | 0.5 µg/mL | 4 µg/mL | 2 µg/mL | 64 | 0.1% | > 1000 µg/mL | 41000 | 32 µg/mL (≈ 96.9 µM) | 64 µg/mL (≈ 194 µM) | 32 µg/mL (≈ 96.9 µM) | 32 µg/mL (≈ 96.9 µM) | 32 µg/mL (≈ 96.9 µM) | 32 µg/mL (≈ 96.9 µM) | FC [22]: 3; Activity (HeLa [23]): Non-Toxic; pKi [24]: 6.17; inhibition [25]: 99.9% |
